Source: patent publication US10501449B2 (priority 2018, dated 2019)
Read-outs that look alike come from different tables or passages of the source.

What was measured:
hROMK (human Kir1.1) [1] = target: T1, hROMK (human Kir1.1) (Homo sapiens (Human), UniProt P48048); test: cell-based; type: cell-based; conditions: whole-cell manual patch clamp, CHO T-Rex hROMK stable cell line, voltage step to -120 mV, Ba2+-subtracted hROMK current; read-out: ROMK EP IC50
Protocol: ROMK Manual Patch Clamp Assay
Cell culture conditions: Cells were maintained in conditions similar to those for Thallium flux assay. hROMK channel expression was induced by adding 0.6 μg/ml of Doxycycline 16-24 hrs prior to the experiments. On the day of experiment, the cells were dissociated using Versene, resuspended in growth media and plated onto coverslips 15 minutes prior to use.
Electrophysiology: The coverslip plated with cells was placed in the experiment chamber perfused with bath solution composed of (in mM): 135 NaCl, 5 KCl, 2 CaCl2, 1 MgCl2, 10 HEPES, 5 Glucose (pH 7.4). Patch pipettes with resistance between 2-5 Megaohms, when filled with a solution containing (in mM): 135 KCl, 1 EGTA, 1 MgCl2, 10 HEPES, 2 Na2ATP (pH 7.3), were used to form gigaseals. The cells were voltage clamped at −75 mV in whole-cell configuration using an Axopatch 200b or Multiclamp 700b (Molecular Devices) amplifier controlled by pClamp Software (Molecular Devices). The current was recorded by applying a voltage step to −120 mV every 10 seconds. […] At the end of the experiment, the cells were perfused with bath solution containing 2 mM Ba^2+ to isolate the contribution of hROMK current.
Data analysis: Raw current values (5 traces each for control, different compound concentration and Ba^2+ treatment groups) were exported from Clampfit into Microsoft Excel where the current remaining after application of Ba^2+ was subtracted from raw current to obtain hROMK specific current.

hROMK (human Kir1.1) [2] = target: T1, hROMK (human Kir1.1); test: cell-based; conditions: CHO T-Rex hROMK stable cell line; thallium flux; 10-point concentration response curve; read-out: Human ROMK Th Flux IC50
hERG channels = hERG channels (Homo sapiens (Human), UniProt Q12809); test: hERG Manual Patch Clamp Assay; type: cell-based; conditions: human, HEK 293 cells stably expressing hERG channels, pH 7.4, 1 uM, read-out: hERG EP % Inh @ 1 uM
Sequence of hERG channels (Q12809 whole entry): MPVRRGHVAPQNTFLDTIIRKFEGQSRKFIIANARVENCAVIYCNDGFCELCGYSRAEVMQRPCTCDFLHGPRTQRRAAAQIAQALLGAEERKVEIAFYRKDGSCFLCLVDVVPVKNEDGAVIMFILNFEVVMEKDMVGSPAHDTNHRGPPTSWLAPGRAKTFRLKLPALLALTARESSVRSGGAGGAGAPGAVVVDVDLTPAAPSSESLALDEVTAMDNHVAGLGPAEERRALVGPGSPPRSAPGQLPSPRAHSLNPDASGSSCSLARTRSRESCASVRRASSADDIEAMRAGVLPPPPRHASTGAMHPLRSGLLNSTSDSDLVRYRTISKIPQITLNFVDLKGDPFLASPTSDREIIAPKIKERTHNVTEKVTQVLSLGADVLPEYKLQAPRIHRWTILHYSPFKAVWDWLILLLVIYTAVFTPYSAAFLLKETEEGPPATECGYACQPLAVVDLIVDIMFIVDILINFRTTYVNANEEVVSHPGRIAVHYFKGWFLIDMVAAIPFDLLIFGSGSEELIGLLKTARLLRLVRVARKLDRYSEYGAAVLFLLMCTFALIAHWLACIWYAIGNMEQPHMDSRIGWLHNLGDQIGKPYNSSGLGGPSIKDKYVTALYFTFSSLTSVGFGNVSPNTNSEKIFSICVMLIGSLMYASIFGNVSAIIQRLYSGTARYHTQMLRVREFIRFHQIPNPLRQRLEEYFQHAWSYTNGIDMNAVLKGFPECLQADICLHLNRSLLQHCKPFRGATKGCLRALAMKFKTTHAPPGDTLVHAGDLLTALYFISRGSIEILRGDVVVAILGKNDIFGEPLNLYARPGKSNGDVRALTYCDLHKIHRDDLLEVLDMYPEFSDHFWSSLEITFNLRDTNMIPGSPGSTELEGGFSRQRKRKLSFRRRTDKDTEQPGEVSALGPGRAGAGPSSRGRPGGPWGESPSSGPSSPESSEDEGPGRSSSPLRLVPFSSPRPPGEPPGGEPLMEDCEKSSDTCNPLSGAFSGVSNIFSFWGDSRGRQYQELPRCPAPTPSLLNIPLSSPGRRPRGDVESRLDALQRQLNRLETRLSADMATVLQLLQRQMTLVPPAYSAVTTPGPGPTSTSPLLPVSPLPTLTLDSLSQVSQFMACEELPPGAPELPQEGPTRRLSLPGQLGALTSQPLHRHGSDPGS

T1 sequence (P48048 whole entry): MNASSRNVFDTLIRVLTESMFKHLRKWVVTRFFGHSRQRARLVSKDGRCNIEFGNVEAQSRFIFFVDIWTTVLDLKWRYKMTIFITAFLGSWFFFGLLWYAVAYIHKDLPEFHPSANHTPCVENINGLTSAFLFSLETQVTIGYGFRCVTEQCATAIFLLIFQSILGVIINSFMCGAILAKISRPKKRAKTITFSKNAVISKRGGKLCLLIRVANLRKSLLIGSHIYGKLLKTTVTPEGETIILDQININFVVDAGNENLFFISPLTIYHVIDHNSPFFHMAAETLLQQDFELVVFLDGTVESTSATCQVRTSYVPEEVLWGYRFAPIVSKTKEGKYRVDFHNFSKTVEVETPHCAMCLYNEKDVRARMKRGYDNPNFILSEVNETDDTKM

For Cc1cc(-c2nnc(CN3C[C@@H](c4ccc5c(c4C)COC5=O)N[C@@H](C)C3)o2)ncc1C#N [Example 191-I, 4-methyl-6-(5-(((3S,5R)-3-methyl-5-(4-methyl-1-oxo-1,3-dihydroisobenzofuran-5-yl)piperazin-1-yl)methyl)-1,3,4-oxadiazol-2-yl)nicotinonitrile], the IC50 (hROMK (human Kir1.1) [1]) was 0.021 µM, the IC50 (hROMK (human Kir1.1) [2]) was 0.029 µM and the inhibition at 1 µM (hERG channels) was 4.3%.
Compound COc1cc(-n2ncc(CN3C[C@@H](c4ccc5c(c4C)COC5=O)N[C@@H](C)C3)n2)ncc1C#N [Example 107-I, 4-methoxy-6-(4-(((3S,5R)-3-methyl-5-(4-methyl-1-oxo-1,3-dihydroisobenzofur-an-5-yl)piperazin-1-yl)methyl)-2H-1,2,3-triazol-2-yl)nicotinonitrile] has an IC50 (hROMK (human Kir1.1) [1]) of 0.018 µM, an IC50 (hROMK (human Kir1.1) [2]) of 0.026 µM and an inhibition at 1 µM (hERG channels) of 13%.
For Cc1nn(-c2ncc(CN3C[C@@H](c4ccc5c(c4C)COC5=O)N[C@@H](C)C3)cn2)cc1C#N [Example 108-I, 3-methyl-1-(5-(((3S,5R)-3-methyl-5-(4-methyl-1-oxo-1,3-dihydroisobenzofur-an-5-yl)piperazin-1-yl)methyl)pyrimidin-2-yl)-1H-pyrazole-4-carbonitrile], the IC50 (hROMK (human Kir1.1) [1]) was 0.021 µM, the IC50 (hROMK (human Kir1.1) [2]) was 0.03 µM and the inhibition at 1 µM (hERG channels) was 8.7%.
Cc1cn(-c2ncc(CN3CCN[C@H](c4ccc5c(c4C)COC5=O)C3)cn2)cn1 [Example 216-I] showed an IC50 (hROMK (human Kir1.1) [1]) of 0.014 µM, an IC50 (hROMK (human Kir1.1) [2]) of 0.025 µM and an inhibition at 1 µM (hERG channels) of 5.6%.
Cc1ncn(-c2ncc(CN3C[C@@H](c4ccc5c(c4C)COC5=O)N[C@@H](C)C3)cn2)c1C [Example 94-I, 5-((2R,6S)-4-((2-(4,5-dimethyl-1H-imidazol-1-yl)pyrimidin-5-yl)methyl)-6-methylpiperazin-2-yl)-4-methylisobenzofuran-1(3H)-one] showed an IC50 (hROMK (human Kir1.1) [1]) of 0.014 µM, an IC50 (hROMK (human Kir1.1) [2]) of 0.039 µM and an inhibition at 1 µM (hERG channels) of 4.3%.
With COc1nc(-n2cnc(CN3C[C@@H](c4ccc5c(c4C)COC5=O)N[C@@H](C)C3)c2)ncc1C#N [Example 103-I, 4-methoxy-2-(4-(((3S,5R)-3-methyl-5-(4-methyl-1-oxo-1,3-dihydroisobenzofur-an-5-yl)piperazin-1-yl)methyl)-1H-imidazol-1-yl)pyrimidine-5-carbonitrile] the IC50 (hROMK (human Kir1.1) [1]) was 0.029 µM, the IC50 (hROMK (human Kir1.1) [2]) was 0.025 µM and the inhibition at 1 µM (hERG channels) was 14%.
Cc1nc(-n2cnc(CN3C[C@@H](c4ccc5c(c4C)COC5=O)N[C@@H](C)C3)c2)ncc1C#N [Example 164-I, 4-methyl-2-(4-(((3S,5R)-3-methyl-5-(4-methyl-1-oxo-1,3-dihydroisobenzofuran-5-yl)piperazin-1-yl)methyl)-1H-imidazol-1-yl)pyrimidine-5-carbonitrile] gave an IC50 (hROMK (human Kir1.1) [1]) of 0.03 µM, an IC50 (hROMK (human Kir1.1) [2]) of 0.031 µM and an inhibition at 1 µM (hERG channels) of 6%.
Work on Cc1cc(-n2cc(CN3C[C@H](CO)N(C)[C@H](c4ccc5c(c4C)COC5=O)C3)cn2)ncc1C#N [Example 195-I, 6-(4-(((3R,5R)-3-(hydroxymethyl)-4-methyl-5-(4-methyl-1-oxo-1,3-dihydroisobenzofuran-5-yl)piperaizn-1-yl)methyl)-1H-pyrazol-1-yl)-4-methylnicotinonitrile] yielded an IC50 (hROMK (human Kir1.1) [1]) of 0.079 µM, an IC50 (hROMK (human Kir1.1) [2]) of 0.066 µM and an inhibition at 1 µM (hERG channels) of 5.9%.
COc1nc(-n2ncc(CN3C[C@@H](c4ccc5c(c4C)COC5=O)N[C@@H](C)C3)n2)ncc1C#N [Example 166-I, 4-methoxy-2-(4-(((3S,5R)-3-methyl-5-(4-methyl-1-oxo-1,3-dihydroisobenzofuran-5-yl)piperazin-1-yl)methyl)-2H-1,2,3-triazol-2-yl)pyrimidine-5-carbonitrile] was tested, and the IC50 (hROMK (human Kir1.1) [1]) was 0.013 µM, the IC50 (hROMK (human Kir1.1) [2]) was 0.03 µM and the inhibition at 1 µM (hERG channels) was 6%.
COc1nc(-n2cc(CN3C[C@@H](c4ccc5c(c4C)COC5=O)N[C@@H](C)C3)nc2C)ncc1C#N [Example 167-I, 4-methoxy-2-(2-methyl-4-(((3S,5R)-3-methyl-5-(4-methyl-1-oxo-1,3-dihydroisobenzofuran-5-yl)piperazin-1-yl)methyl)-1H-imidazol-1-yl)pyrimidine-5-carbonitrile] showed an IC50 (hROMK (human Kir1.1) [1]) of 0.018 µM, an IC50 (hROMK (human Kir1.1) [2]) of 0.026 µM and an inhibition at 1 µM (hERG channels) of 11%.
For COc1nc(-n2cc(CN3CCN[C@H](c4ccc5c(c4C)COC5=O)C3)nn2)cc(C)c1C#N [Example 189-I, (R)-2-methoxy-4-methyl-6-(4-((3-(4-methyl-1-oxo-1,3-dihydroisobenzofuran-5-yl)piperazin-1-yl)methyl)-1H-1,2,3-triazol-1-yl)nicotinonitrile], the IC50 (hROMK (human Kir1.1) [1]) was 0.017 µM, the IC50 (hROMK (human Kir1.1) [2]) was 0.025 µM and the inhibition at 1 µM (hERG channels) was 8.9%.
In the case of COc1cc(-n2cc(CN3C[C@@H](c4ccc5c(c4C)COC5=O)N[C@@H](C)C3)cn2)ncn1 [Example 207-I, 5-((2R,6S)-4-((1-(6-methoxypyrimidin-4-yl)-1H-pyrazol-4-yl)methyl)-6-methylpiperazin-2-yl)-4-methylisobenzofuran-1(3H)-one], the IC50 (hROMK (human Kir1.1) [1]) is reported as 0.018 µM, the IC50 (hROMK (human Kir1.1) [2]) is reported as 0.053 µM and the inhibition at 1 µM (hERG channels) is reported as 10%.
In the case of COc1cc(-n2cnc(CN3C[C@@H](c4ccc5c(c4C)COC5=O)N[C@@H](C)C3)c2)ccn1 [Example 126-I, 5-((2R,6S)-4-((1-(2-methoxypyridin-4-yl)-1H-imidazol-4-yl)methyl)-6-methylpiperazin-2-yl)-4-methylisobenzofuran-1(3H)-one], the IC50 (hROMK (human Kir1.1) [1]) is reported as 0.017 µM, the IC50 (hROMK (human Kir1.1) [2]) is reported as 0.034 µM and the inhibition at 1 µM (hERG channels) is reported as 7.8%.
Work on Cc1cc(-n2ncc(CN3CCN[C@H](c4ccc5c(c4C)COC5=O)C3)n2)nc(C)c1C#N [Example 184-I, (R)-2,4-dimethyl-6-(4-((3-(4-methyl-1-oxo-1,3-dihydroisobenzofuran-5-yl)piperazin-1-yl)methyl)-2H-1,2,3-triaozl-2-yl)nicotinonitrile] yielded an IC50 (hROMK (human Kir1.1) [1]) of 0.01 µM, an IC50 (hROMK (human Kir1.1) [2]) of 0.03 µM and an inhibition at 1 µM (hERG channels) of 6.1%.
Compound Cc1cc(-n2cc(CN3C[C@@H](c4ccc5c(c4C)COC5=O)N[C@@H](C)C3)cn2)ncc1C#N [Example 105-I, 4-methyl-6-(4-(((3S,5R)-3-methyl-5-(4-methyl-1-oxo-1,3-dihydroisobenzofur-an-5-yl)piperazin-1-yl)methyl)-1H-pyrazol-1-yl)nicotinonitrile] has an IC50 (hROMK (human Kir1.1) [1]) of 0.011 µM, an IC50 (hROMK (human Kir1.1) [2]) of 0.026 µM and an inhibition at 1 µM (hERG channels) of 9.7%.
Compound Cc1nc(-n2ncc(CN3C[C@@H](c4ccc5c(c4C)COC5=O)N[C@@H](C)C3)n2)nc(C)c1C#N [Example 151-I, 4,6-dimethyl-2-(4-(((3S,5R)-3-methyl-5-(4-methyl-1-oxo-1,3-dihydroisobenzofuran-5-yl)piperazin-1-yl)methyl)-2H-1,2,3-triazol-2-yl)pyrimidine-5-carbonitrile] has an IC50 (hROMK (human Kir1.1) [1]) of 0.064 µM, an IC50 (hROMK (human Kir1.1) [2]) of 0.043 µM and an inhibition at 1 µM (hERG channels) of 5.1%.
With Cc1cn(-c2ccc(CN3CCO[C@H](c4ccc5c(c4C)COC5=O)C3)cn2)cn1 [Example 16-I, (R)-4-methyl-5-(4-((6-(4-methyl-1H-imidazol-1-yl)pyridin-3-yl)methyl)morpholin-2-yl)isobenzofuran-1(3H)-one] the IC50 (hROMK (human Kir1.1) [1]) was 0.011 µM, the IC50 (hROMK (human Kir1.1) [2]) was 0.033 µM and the inhibition at 1 µM (hERG channels) was 7.3%.
In the case of Cc1cn(-c2ccc(CN3CCN[C@H](c4ccc5c(c4C)COC5=O)C3)cn2)cn1 [Example 66-I, (R)-4-methyl-5-(4-((6-(4-methyl-1H-imidazol-1-yl)pyridin-3-yl)methyl)piperazin-2-yl)iso-benzofuran-1(3H)-one], the IC50 (hROMK (human Kir1.1) [1]) is reported as 0.0047 µM, the IC50 (hROMK (human Kir1.1) [2]) is reported as 0.033 µM and the inhibition at 1 µM (hERG channels) is reported as 0%.
Cc1cc(-n2cc(CN3CC(C)O[C@H](c4ccc5c(c4C)COC5=O)C3)cn2)ncc1C#N (stereo partly drawn) [Example 240-I, 4-methyl-6-(4-(((6R)-2-methyl-6-(4-methyl-1-oxo-1,3-dihydroisobenzofuran-5-yl)morpholino)methyl)-1H-pyrazol-1-yl)nicotinonitrile] gave an IC50 (hROMK (human Kir1.1) [1]) of 0.034 µM, an IC50 (hROMK (human Kir1.1) [2]) of 0.042 µM and an inhibition at 1 µM (hERG channels) of 8.3%.
For Cc1nc(-n2ncc(CN3C[C@@H](c4ccc5c(c4C)COC5=O)N[C@@H](C)C3)n2)ncc1C#N [Example 100-I, 4-methyl-2-(4-(((3S,5R)-3-methyl-5-(4-methyl-1-oxo-1,3-dihydroisobenzofur-an-5-yl)piperazin-1-yl)methyl)-2H-1,2,3-triazol-2-yl)pyrimidine-5-carbonitrile], the IC50 (hROMK (human Kir1.1) [1]) was 0.025 µM, the IC50 (hROMK (human Kir1.1) [2]) was 0.04 µM and the inhibition at 1 µM (hERG channels) was 3.6%.
COc1cc(-n2cc(CN3CCN[C@H](c4ccc5c(c4C)COC5=O)C3)cn2)ncc1C#N [Example 59-I, (R)-4-methoxy-6-(4-((3-(4-methyl-1-oxo-1,3-dihydroisobenzofuran-5-yl)piperazin-1-yl)methyl)-1H-pyrazol-1-yl) nicotinonitrile] showed an IC50 (hROMK (human Kir1.1) [1]) of 0.0048 µM, an IC50 (hROMK (human Kir1.1) [2]) of 0.02 µM and an inhibition at 1 µM (hERG channels) of 15%.
Cc1ncn(-c2ncc(CN3CCN[C@H](c4ccc5c(c4C)COC5=O)C3)cn2)c1C [Example 148-I, (R)-5-(4-((2-(4,5-dimethyl-1H-imidazol-1-yl)pyrimidin-5-yl)methyl)piperazin-2-yl)-4-methylisobenzofuran-1(3H)-one] was tested, and the IC50 (hROMK (human Kir1.1) [1]) was 0.019 µM, the IC50 (hROMK (human Kir1.1) [2]) was 0.027 µM and the inhibition at 1 µM (hERG channels) was 8.8%.
For Cc1cc(-n2nc(C)c(CN3CC(c4ccc5c(c4C)COC5=O)NC(C)(C)C3)n2)ncc1C#N (single isomer, unassigned) [Example 175-I, 6-(4-((3,3-dimethyl-5-(4-methyl-1-oxo-1,3-dihydroisobenzofuran-5-yl)piperazin-1-yl)methyl)-5-methyl-2H-1,2,3-triazol-2-yl)-4-methylnicotinonitrile], the IC50 (hROMK (human Kir1.1) [1]) was 0.017 µM, the IC50 (hROMK (human Kir1.1) [2]) was 0.031 µM and the inhibition at 1 µM (hERG channels) was 15%.
Cc1c([C@@H]2CN(Cc3ccc(-c4ccc(S(C)(=O)=O)nc4)nc3)C[C@H](C)N2)ccc2c1COC2=O [Example 165-I, 4-methyl-5-((2R,6S)-6-methyl-4-((6′-(methylsulfonyl)-[2,3′-bipyridin]-5-yl)methyl)piperazin-2-yl)isobenzofuran-1(3H)-one] showed an IC50 (hROMK (human Kir1.1) [1]) of 0.039 µM, an IC50 (hROMK (human Kir1.1) [2]) of 0.067 µM and an inhibition at 1 µM (hERG channels) of 5.4%.
